Test results published in patent publication US12208071B2, “Glucagon receptor antagonists” (LIGAND PHARMACEUTICALS INCORPORATED, priority 2018, dated 2025).
Entries after “also recorded” stand apart in the source; their conditions may differ.

Assays:
Assay type in all cases: physicochemical
[1] = Aqueous solubility, 24 hours at 25° C., HPLC; details: for solubility at 24 h: 25 °C, thermodynamic from solid; for solubility at 24 h / Solubility: 24 hours at 25° C., n = 2
Description: The testing media: Water, pH 4.0, 6.8, 7.4, 10.0 USP buffers (50 mM), 0.1N HCl, 0.01N HCl, SGF, FaSSIF, FeSSIF.
About 10 mg of Polymorph Form A was weighed and added to a 1.5 mL vial, and then 1.0 mL of aqueous media was added into the vial. The vial was shaken for 24 hours at 25° C. After equilibration for 24 hours, the mixture was centrifuged at 14000 rpm for 10 mins. The concentration of supernatant was checked by HPLC and the residuals were checked by XRPD. The final pH of supernatant was recorded. Experiments were conducted in duplicate.

[2] = Accelerated stability (ICH), 40° C./75% RH; details: for Appearance / Assay (anhydrous w/w %) / Chiral purity (area %) / Individual related substance (area %, w/w), RRT 0.46 / Individual related substance (area %, w/w), RRT 0.64 / Individual related substance (area %, w/w), RRT 1.26 / Purity (area %) / Total related substances (area %, w/w) / Water content (%) / XRPD: 40° C./75% RH
Description: Polymorph Form A was manufactured under Good Manufacturing Practices (GMP)-compliant conditions at a scale of 1.26 kg. The container closure for the batch consisted of double-lined low density polyethylene bags placed inside fiberboard drums, and the batch was on ICH stability under storage conditions of 25° C./60% relative humidity (RH) and 40° C./75% RH. Long-term stability data through the 36-month interval and accelerated stability data through the 6-month interval are shown in Tables 2 and 3.
Stability samples were tested according to the protocol (Table 5) and to the same specification as the drug substance. The available stability data for samples stored at 25° C./60% RH and 40° C./75% RH are summarized.

[3] = pKa measurement (Sirius T3, pH-metric and UV-metric); details: pH-metric (MeOH, DMSO, Dioxane co-solvent) and UV-metric (DMSO) methods, pH 1.0 to pH 11.0
Description: There are two methods available on the Sirius T3 for pKa measurement: potentiometric titration and spectroscopic (UV) titration.
Potentiometric Titration Method is a method which works for any ionicable compound and its standard working range is pH 3.0 to pH 11.0. […] Where this cannot be achieved, the use of organic co-solvents to enhance the solubility is employed.
Its available pH range is typically between 0.5 and 13.5. A compound concentration of 50 μM is typically used, i.e., ten fold lower than the pH-metric method. Co-solvent determination may also be performed when the assayed compounds remain insoluble under all other conditions.
When co-solvent solutions had been employed by pH-metric method or UV-metric method, the psKa values are extrapolated to zero percent organic content using the Yasuda-Shedlovsky extrapolation procedure, which yields extrapolated aqueous pKa values and slope information which can be used to ascertain the acidic/basic characteristics of the ionisable groups.
About 1 mg of Polymorph Form A was weighed into a sample vial, about 1.5 mL of co-solvent (60v % DMSO, 80v % MeOH or 60v % Dioxane) was added into the vial manually, then titrated with acid or base to obtain a psKa value with co-solvent and water, and extrapolated to get aqueous pKa value. Tables 7-9 below and FIGS. 7A-9B provide the results of pKa determination by pH metric method. […]

SMILES: Cc1cc(C)c(-c2ccc(NC(=O)[C@H](Cc3ccc(C(=O)NCCS(=O)(=O)[O-])cc3)c3ccc(-c4ccc(C(C)(C)C)cc4)cc3)cc2)c(C)c1.[Na+] [Polymorph Form A, Sodium (R)-2-(4-(2-(4′-(tert-butyl)-[1,1′-biphenyl]-4-yl)-3-oxo-3-((2′,4′,6′-trimethyl-[1,1′-biphenyl]-4-yl)amino)propyl)benzamido)ethane-1-sulfonate]
- Form (XRPD of residual after solubility test) ([1]; 0.01N HCl): Form A
- solubility at 24 h ([1]; 0.01N HCl, pH 2.24, simulated gastric fluid, initial pH 1.97, final pH 2.24): < 100 µg/mL
- Solubility ([1]; 0.01N HCl, initial pH 1.97, final pH 2.24): 70 ± 0 µg/mL
- Form (XRPD of residual after solubility test) ([1]; 0.1N HCl): Form A
- solubility at 24 h ([1]; 0.1N HCl, pH 1.08, simulated gastric fluid, initial pH 1.02, final pH 1.08): < 100 µg/mL
- Solubility ([1]; 0.1N HCl, initial pH 1.02, final pH 1.08): 60 ± 0 µg/mL
- Form (XRPD of residual after solubility test) ([1]; FaSSIF): Form A
- Form (XRPD of residual after solubility test) ([1]; FeSSIF): Form A
- Form (XRPD of residual after solubility test) ([1]; SGF): Form A
- XRPD after solubility test (overall) ([1]; all aqueous media): no new forms were found; also recorded: no change
- solubility at 24 h ([1]; pH 4.0 USP buffer (50 mM), pH 4, aqueous buffer, pH 4.0 buffer, initial pH 4.05, final pH 4.13): < 100 µg/mL
- Form (XRPD of residual after solubility test) ([1]; pH 4.0 buffer): Form A
- Solubility ([1]; pH 4.0 buffer, initial pH 4.05, final pH 4.13): 50 ± 10 µg/mL
- solubility at 24 h ([1]; pH 6.8 USP buffer (50 mM), pH 6.8, aqueous buffer, pH 6.8 buffer, initial pH 6.84, final pH 6.87): < 100 µg/mL
- Form (XRPD of residual after solubility test) ([1]; pH 6.8 buffer): Form A
- Solubility ([1]; pH 6.8 buffer, initial pH 6.84, final pH 6.87): 50 ± 0 µg/mL
- solubility at 24 h ([1]; pH 7.4 USP buffer (50 mM), pH 7.4, aqueous buffer, pH 7.4 buffer, initial pH 7.43, final pH 7.46): < 100 µg/mL
- Form (XRPD of residual after solubility test) ([1]; pH 7.4 buffer): Form A
- Solubility ([1]; pH 7.4 buffer, initial pH 7.43, final pH 7.46): 60 ± 10 µg/mL
- Form (XRPD of residual after solubility test) ([1]; pH 10.0 buffer): Form A
- Form (XRPD of residual after solubility test) ([1]; water): Form A
- water content ([2]; 40° C./75% RH after the 2-month interval, stabilized level): approximately 10%
- Appearance ([2]; 0 months): White
- Assay (anhydrous w/w %) ([2]; 0 months): 101.3 w/w %
- Chiral purity (area %) ([2]; 0 months): 99.9 area %
- Individual related substance (area %, w/w), RRT 0.46 ([2]; 0 months): 0.08 area %, w/w
- Individual related substance (area %, w/w), RRT 0.64 ([2]; 0 months): 0.12 area %, w/w
- Individual related substance (area %, w/w), RRT 1.26 ([2]; 0 months): 0.05 area %, w/w
- Purity (area %) ([2]; 0 months): 99.8 area %
- Total related substances (area %, w/w) ([2]; 0 months): 0.25 area %, w/w
- Water content (%) ([2]; 0 months): 2.1%
- Appearance ([2]; 1 month): White
- Assay (anhydrous w/w %) ([2]; 1 month): 102.0 w/w %
- Chiral purity (area %) ([2]; 1 month): 99.8 area %
- Individual related substance (area %, w/w), RRT 0.46 ([2]; 1 month): 0.08 area %, w/w
- Individual related substance (area %, w/w), RRT 0.64 ([2]; 1 month): 0.11 area %, w/w
- Individual related substance (area %, w/w), RRT 1.26 ([2]; 1 month): 0.05 area %, w/w
- Purity (area %) ([2]; 1 month): 99.8 area %
- Total related substances (area %, w/w) ([2]; 1 month): 0.24 area %, w/w
- Water content (%) ([2]; 1 month): 8.1%
- Appearance ([2]; 2 months): White
- Assay (anhydrous w/w %) ([2]; 2 months): 103.4 w/w %
- Chiral purity (area %) ([2]; 2 months): 99.8 area %
- Individual related substance (area %, w/w), RRT 0.46 ([2]; 2 months): 0.08 area %, w/w
- Individual related substance (area %, w/w), RRT 0.64 ([2]; 2 months): 0.12 area %, w/w
- Individual related substance (area %, w/w), RRT 1.26 ([2]; 2 months): 0.06 area %, w/w
- Purity (area %) ([2]; 2 months): 99.7 area %
- Total related substances (area %, w/w) ([2]; 2 months): 0.26 area %, w/w
- Water content (%) ([2]; 2 months): 9.8%
- Appearance ([2]; 3 months): White
- Assay (anhydrous w/w %) ([2]; 3 months): 103.4 w/w %
- Chiral purity (area %) ([2]; 3 months): 100.0 area %
- Individual related substance (area %, w/w), RRT 0.46 ([2]; 3 months): 0.08 area %, w/w
- Individual related substance (area %, w/w), RRT 0.64 ([2]; 3 months): 0.11 area %, w/w
- Individual related substance (area %, w/w), RRT 1.26 ([2]; 3 months): 0.05 area %, w/w
- Purity (area %) ([2]; 3 months): 99.8 area %
- Total related substances (area %, w/w) ([2]; 3 months): 0.24 area %, w/w
- Water content (%) ([2]; 3 months): 10.0%
- XRPD ([2]; 3 months): Same form
- Appearance ([2]; 6 months): White
- Assay (anhydrous w/w %) ([2]; 6 months): 103.7 w/w %
- Chiral purity (area %) ([2]; 6 months): 100.0 area %
- Individual related substance (area %, w/w), RRT 0.46 ([2]; 6 months): 0.08 area %, w/w
- Individual related substance (area %, w/w), RRT 0.64 ([2]; 6 months): 0.12 area %, w/w
- Individual related substance (area %, w/w), RRT 1.26 ([2]; 6 months): 0.05 area %, w/w
- Purity (area %) ([2]; 6 months): 99.8 area %
- Total related substances (area %, w/w) ([2]; 6 months): 0.25 area %, w/w
- Water content (%) ([2]; 6 months): 10.0%
- XRPD ([2]; 6 months): Same form
- pKa [3]: could not be detected
